#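 Compound exposure: 48 hours, 5 concentrations, 96-well plates. GI50: concentration for 50% inhibition of growth. The concentration for full growth arrest is given as TGI.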 Where a SMILES comes first, the peptide text is derived from it. The star is where a group is joined. Boc = CC(C)(C)OC(=O)*; Bn = c1ccc(C*)cc1
# How the values were obtained:
# Assay in all cases: NCI tumour cell line growth inhibition, 48 h
# CAKI-1 renal = tested on: CAKI-1 renal
# OVCAR-4 ovarian = tested on: OVCAR-4 ovarian
# HS 578T breast = tested on: HS 578T breast
# IGROV1 ovarian = tested on: IGROV1 ovarian
# SF-295 CNS = tested on: SF-295 CNS
# SR leukemia = tested on: SR leukemia
# MOLT-4 leukemia = tested on: MOLT-4 leukemia
# U251 CNS = tested on: U251 CNS
# NCI-H460 lung = tested on: NCI-H460 lung
# SF-539 CNS = tested on: SF-539 CNS
SMILES,GI50 (CAKI-1 renal) [µM],TGI (CAKI-1 renal) [µM],GI50 (OVCAR-4 ovarian) [µM],TGI (OVCAR-4 ovarian) [µM],GI50 (HS 578T breast) [µM],TGI (HS 578T breast) [µM],GI50 (IGROV1 ovarian) [µM],TGI (IGROV1 ovarian) [µM],TGI (SF-295 CNS) [µM],GI50 (SR leukemia) [µM],TGI (SR leukemia) [µM],GI50 (MOLT-4 leukemia) [µM],TGI (MOLT-4 leukemia) [µM],GI50 (U251 CNS) [µM],TGI (U251 CNS) [µM],TGI (NCI-H460 lung) [µM],GI50 (SF-539 CNS) [µM],TGI (SF-539 CNS) [µM],GI50 (SF-295 CNS) [µM],GI50 (NCI-H460 lung) [µM]
NS(=O)(=O)c1ccc(/C=C/c2ccc(O)c(O)c2)cc1,29.1,> 100,11.6,27.2,25.6,92.8,4.49,40.1,74.3,12.7,51.3,12.8,53.7,16.3,46.9,> 100,14.2,40.2,–,–
COC(=O)C(CC(C)C)NC(=O)C(C)NC(=O)C(Cc1ccc(OCc2ccccc2)cc1)NC(=O)C(COCc1ccccc1)NC(=O)OC(C)(C)C (configuration not stated) (Boc-S(Bn)Y(Bn)AL-OMe; configuration not given here),–,> 100,–,> 100,–,> 100,–,> 100,> 100,–,> 100,–,> 100,–,> 100,> 100,–,> 100,–,–
COC(=O)C1=C(OC(=O)/C(=C/c2ccc(Cl)cc2)c2ccc(Cl)cc2)C(C(=O)OC)[C@@]2(O)[C@@H](C(=O)OC)[C@H](C)C[C@@H]1[C@@H]2C(=O)OC (some centres not stated),–,> 100,–,> 100,–,> 100,–,> 100,> 100,–,> 100,–,98.8,–,> 100,> 100,–,> 100,–,–
COC(=O)C1=C(C(=O)OC)N(c2ccc(OC)cc2[N+](=O)[O-])C(c2ccc(C)cc2)=CC1c1ccc(OC)cc1OC (configuration not stated),–,> 92.4,–,> 100,–,79.5,–,56.8,> 100,–,27.7,–,55.2,–,34.8,98.7,–,20.8,–,–
O=C(Nc1ccccc1)c1cc(S(=O)(=O)NC2=NC(c3ccccc3)c3cc(Cl)ccc3N2)c(SSc2cc(Cl)c(C(=O)Nc3ccccc3)cc2S(=O)(=O)NC2=NC(c3ccccc3)c3cc(Cl)ccc3N2)cc1Cl (configuration not stated),–,> 100,–,> 100,–,> 100,–,> 100,> 100,–,> 26.7,–,> 58.3,–,> 100,> 100,–,> 100,–,–
O=C1c2ccccc2C(=O)c2c(NCC(O)CO)ccc(NCC(O)CO)c21 (configuration not stated),–,> 100,–,> 100,–,> 100,–,> 100,–,–,> 100,–,> 100,–,> 100,> 100,–,> 100,–,–
COC[C@@H](N=CC(C)(C)C)C(C)C,–,> 100,–,> 100,–,> 100,–,> 100,> 100,–,> 100,–,> 100,–,> 100,> 100,–,> 100,–,–
CN1C(=O)c2ccccc2OC12C=Cc1c(ccc3ccccc13)O2 (configuration not stated),–,33.3,–,> 52.7,–,33.1,–,30.8,12.7,–,> 100,–,17.2,–,> 34,42.5,–,50.4,–,–
N#CC1C(=S)NC(c2ccccc2)=CC12CCCCC2 (configuration not stated),–,> 100,–,85.5,–,> 100,–,70.2,–,–,50.2,–,53.2,–,> 100,> 100,–,> 100,–,–
Fc1ccc2c(c1)nc1n2C(c2c(Cl)cccc2Cl)SC1 (configuration not stated),–,25,–,29.7,–,34.7,–,27.1,26.8,–,> 100,–,52.5,–,25.8,20.8,–,34.8,–,–
C=CCc1cccc2cc(C(=O)NCc3ccccc3)c(=N)oc12,–,> 100,–,> 100,–,63.8,–,> 100,–,–,> 100,–,> 100,–,> 100,> 100,–,> 100,–,–
COC(=O)c1ccc(/C=C/c2cc(O)ccc2O)cc1,–,7.5,–,15.9,–,> 100,–,9.42,> 100,–,3.69,–,0.927,–,8.44,25.9,–,6.65,–,–
COC(=O)c1c(O)ccc2c1c1c(n2Cc2cc(OC)cc(OC)c2)C(=O)c2ccccc2C1,–,63.7,–,44.8,–,> 100,–,> 100,> 100,–,> 100,–,> 100,–,> 100,> 100,–,> 100,–,–
COc1cccc(C(=O)Oc2ccc(OS(=O)(=O)c3ccc(C)cc3)cc2)c1C#N,–,> 100,–,> 100,–,> 100,–,> 100,> 100,–,> 100,–,> 100,–,> 100,> 100,–,> 100,–,–
NC(N)=NCCN1CC2CCC(CC2)C1,–,> 100,–,> 100,–,> 100,–,> 100,> 100,–,> 100,–,> 100,–,> 100,> 100,–,> 100,–,–
O=c1[nH]nnc2c1sc1ncccc12,–,> 100,–,> 100,–,> 100,–,> 100,> 100,–,> 100,–,> 100,–,> 100,> 100,–,> 100,–,–
Cc1ccc(-n2cnc(C(=N)C#N)c2N)cc1,–,> 100,–,> 100,–,> 100,–,> 100,> 100,–,> 100,–,> 100,–,> 100,> 100,–,> 100,–,–
C=CCn1c(N)c(C#N)c(C#N)c1-c1ccccc1,–,> 100,–,> 100,–,> 100,–,> 100,> 100,–,> 100,–,> 100,–,> 100,–,–,> 100,–,–
COc1cccc(C2c3cc4c(cc3OC(N3CCCCC3)C2C)OCO4)c1O (configuration not stated),–,> 53,–,> 100,–,> 26.4,–,> 100,24.3,–,11.8,–,37.6,–,16.2,24.4,–,5.82,–,–
Cc1ccc(C2SCC(=O)N2c2ccc(-n3c(-c4ccccc4)nc4ccccc4c3=O)cc2)cc1 (configuration not stated),–,> 100,–,> 100,–,77.9,–,90.7,44.7,–,> 100,–,> 100,–,35,27.6,–,39.6,–,–
Cc1[nH]c(=O)nc2nc3ccc(Cl)cc3c(NCCNCCO)c12,–,25.4,–,26.2,–,31.8,–,25.4,30.2,–,> 100,–,> 100,–,21.2,25,–,20.6,–,–

SMILES,GI50 (CAKI-1 renal) [µM],TGI (CAKI-1 renal) [µM],GI50 (OVCAR-4 ovarian) [µM],TGI (OVCAR-4 ovarian) [µM],GI50 (HS 578T breast) [µM],TGI (HS 578T breast) [µM],GI50 (IGROV1 ovarian) [µM],TGI (IGROV1 ovarian) [µM],TGI (SF-295 CNS) [µM],GI50 (SR leukemia) [µM],TGI (SR leukemia) [µM],GI50 (MOLT-4 leukemia) [µM],TGI (MOLT-4 leukemia) [µM],GI50 (U251 CNS) [µM],TGI (U251 CNS) [µM],TGI (NCI-H460 lung) [µM],GI50 (SF-539 CNS) [µM],TGI (SF-539 CNS) [µM],GI50 (SF-295 CNS) [µM],GI50 (NCI-H460 lung) [µM]
CO/N=C(\C(=O)OC(=NC1CCCCC1)NC1CCCCC1)c1csc(NC(c2ccccc2)(c2ccccc2)c2ccccc2)n1,–,> 10,–,> 10,–,> 10,–,> 10,> 10,–,> 10,–,> 10,–,> 10,> 10,–,> 10,–,–
COc1cc(OC)cc(Oc2nc3ccccc3nc2C(F)(F)F)c1,–,> 100,–,> 100,–,> 100,–,> 100,> 100,–,> 100,–,> 100,–,> 100,> 100,–,> 100,–,–
Cc1c(C)c2c(c(N)c1C#N)C(=O)N(NC(=O)c1ccccc1)C2=O,–,> 100,–,> 100,–,> 100,–,> 100,> 100,–,> 100,–,> 100,–,> 100,> 100,–,> 100,–,–
CC(=O)c1ccccc1NP(=O)(c1ccccc1)c1ccccc1,–,> 100,–,> 100,–,> 100,–,> 100,> 100,–,> 100,–,> 100,–,> 100,> 100,–,> 100,–,–
O=C(/C=C/c1ccccc1)Oc1cccc(O)c1,–,> 100,–,> 100,–,> 100,–,43.6,34.3,–,48.6,–,21.8,–,> 100,> 100,–,> 100,–,–
O=c1[nH]cnc2c1cnn2Cc1cn(CCCCO)nn1,–,> 100,–,> 100,–,> 100,–,> 100,> 100,–,> 100,–,> 100,–,> 100,> 100,–,> 100,–,–
CC1CC(OP(=O)(OCc2ccccc2)OCc2ccccc2)[C@@H](OCc2ccccc2)C(OCc2ccccc2)C1OCc1ccccc1 (some centres not stated),–,> 100,–,> 100,–,> 100,–,> 100,> 100,–,> 100,–,> 100,–,> 100,> 100,–,> 100,–,–
Cc1ccnc2[nH]c(-c3ccc4ccccc4c3)cc(=O)c12,2.39,14.4,–,4.45,–,5.6,–,11.1,10.9,–,0.919,–,> 100,0.644,10.4,7.34,–,6.79,1.49,1.05
Cc1ccc(/C=N/Nc2cc(C)c3cccc(C)c3n2)s1,–,> 100,–,> 100,–,41.6,–,22.2,21.8,–,> 100,–,47.7,–,> 100,–,–,41.1,–,–
Brc1ccc2[nH]cc(-c3csc(-c4c[nH]c5ccccc45)n3)c2c1,–,9.2,–,28.1,–,> 47.9,–,11.6,6.32,–,10.4,–,6.18,–,8.64,12.6,–,16.7,–,–
O=C1Sc2cc3ccccc3cc2C(=O)Sc2ccc(Br)cc21,–,14.8,–,35.2,–,> 35,–,16.8,29.1,–,9.14,–,> 31.6,–,5.27,24.2,–,27,–,–
Nc1c(C(=O)O)nnc2ccc(Cl)cc12,–,> 100,–,> 100,–,> 100,–,> 100,> 100,–,> 100,–,> 100,–,> 100,> 100,–,> 100,–,–
N#C[C@H](c1ccccn1)c1nc2ccccc2nc1Cl,–,> 100,–,> 100,–,> 100,–,> 100,> 100,–,> 100,–,> 100,–,> 100,> 100,–,> 100,–,–
O=S(=O)(O)CCCc1cccc2ccccc12,–,> 100,–,> 100,–,> 100,–,> 100,> 100,–,> 100,–,> 100,–,> 100,> 100,–,> 100,–,–
COc1cccc(CCNC(=O)Cc2ccccc2CCO)c1,–,> 100,–,> 100,–,> 100,–,> 100,> 100,–,> 100,–,> 100,–,> 100,> 100,–,> 100,–,–
CC(=O)Nc1sc(Br)cc1S(=O)(=O)c1ccc(Cl)cc1,–,> 100,–,64.5,–,56.3,–,> 100,> 100,–,50.5,–,> 100,–,> 100,> 100,–,40.6,–,–
O=[N+]([O-])c1ccc(CN(CCCl)OCCCl)cc1,–,> 100,–,> 100,–,> 100,–,> 100,> 100,–,> 100,–,> 100,–,> 100,> 100,–,> 100,–,–
CC(C)(C)OC(=O)NC1CCCCC1NC(=O)C(=O)NC1CCCCC1NC(=O)OC(C)(C)C (configuration not stated),–,> 100,–,> 100,–,57.1,–,> 100,> 100,–,> 100,–,> 100,–,> 100,> 100,–,> 100,–,–
CC1=NN(c2nc(N)nc(/C(C#N)=C\c3ccc([N+](=O)[O-])s3)n2)C(C)(C)C1,–,> 21,–,12.1,–,> 100,–,0.287,23.1,–,0.152,–,0.379,–,0.221,0.553,–,0.467,–,–
COc1cc(C2c3cc4c(cc3OC(N3CCCCC3)C2C)OCO4)cc(OC)c1O (configuration not stated),–,25.2,–,> 61.2,–,31.8,–,36.4,13.4,–,> 44.5,–,> 91.3,–,> 64.6,23.3,–,25.5,–,–
